Key:
[1] = Compound was evaluated for its binding affinity against Cannabinoid receptor 2 in Guinea pig ileum (GPI) using [3H]CP-55940 ligand
[2] = Compound was evaluated for its binding affinity against Cannabinoid receptor 1 in Guinea pig ileum (GPI) using [3H]CP-55940 ligand
[3] = Compound was evaluated for its binding affinity against Cannabinoid receptor 1 in Guinea pig ileum (GPI) using [3H]SR-141,716A ligand at site 2
[4] = Compound was evaluated for its binding affinity against Cannabinoid receptor 1 in Guinea pig ileum (GPI) using [3H]SR-141,716A ligand at site 1
[5] = Compound was evaluated for its binding affinity against Cannabinoid receptor 1 in Guinea pig ileum (GPI) using [3H]SR-141,716A ligand

Compound	Ki [1]	Ki [2]	Ki [3]	Ki [4]	Ki [5]
CC1=C(CCN2CCOCC2)c2ccccc2/C1=C/c1cccc2ccccc12 [4-(2-{2-Methyl-3-[1-naphthalen-1-yl-meth-(Z)-ylidene]-3H-inden-1-yl}-ethyl)-morpholine]	2.1 nM				
C1=C(CCN2CCOCC2)c2ccccc2/C1=C/c1cccc2ccccc12 [4-(2-{3-[1-Naphthalen-1-yl-meth-(E)-ylidene]-3H-inden-1-yl}-ethyl)-morpholine]	2.7 nM	2.7 nM	611 nM	11 nM	
C1=C(CCN2CCOCC2)c2ccccc2/C1=C\c1cccc2ccccc12 [4-(2-{3-[1-Naphthalen-1-yl-meth-(Z)-ylidene]-3H-inden-1-yl}-ethyl)-morpholine]	132 nM	148 nM			928 nM

Source: BindingDB's records for doi:10.1021/jm9801197 (Kennesaw State University, 1999)
